Tests used:
Assay type in all cases: in vivo
wild oat (Avena fatua) = test: Test C pre-/postemergence plant response; details: Preemergence
Method in brief: (§1)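 Greenhouse-type test under controlled conditions: soil-surface preemergence treatment of sown seed and foliar postemergence treatment of seedlings 2–18 cm tall. Each compound was in non-phytotoxic solvent with surfactant. Response was rated by eye after 15–25 days, 0 to 100, against controls.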

[1] = tested on: spring barley (Hordeum vulgare); test: Test C pre-/postemergence plant response; details: Preemergence
Method in brief: as §1

[2] = tested on: canarygrass (Phalaris minor); test: Test C pre-/postemergence plant response; details: Preemergence
Method in brief: as §1

[3] = tested on: Italian ryegrass (Lolium multiflorum); test: Test C pre-/postemergence plant response; details: Preemergence
Method in brief: as §1

[4] = tested on: winter wheat (Triticum aestivum); test: Test C pre-/postemergence plant response; details: Preemergence
Method in brief: as §1

[5] = tested on: downy bromegrass (Bromus tectorum); test: Test C pre-/postemergence plant response; details: Preemergence
Method in brief: as §1

[6] = tested on: wild mustard (Sinapis arvensis); test: Test C pre-/postemergence plant response; details: Preemergence
Method in brief: as §1

[7] = tested on: annual bluegrass (Poa annua); test: Test C pre-/postemergence plant response; details: Preemergence, scale 0 to 100 (0 no effect, 100 complete control)
Method in brief: as §1

[8] = tested on: pigweed (Amaranthus retroflexus); test: Test C pre-/postemergence plant response; details: Preemergence
Method in brief: as §1

[9] = tested on: green foxtail (Setaria viridis); test: Test C pre-/postemergence plant response; details: Preemergence
Method in brief: as §1

[10] = tested on: blackgrass (Alopecurus myosuroides); test: Test C pre-/postemergence plant response; details: Preemergence
Method in brief: as §1

[11] = tested on: large crabgrass (Digitaria sanguinalis); test: Test B pre-/postemergence plant response; details: for Crabgrass, Large plant response rating: 8 g ai/ha
Method in brief: (§2)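 Preemergence and postemergence (plants 2-18 cm, 1- to 4-leaf stage) applications used test chemicals in a non-phytotoxic solvent with surfactant. Plants were held in a greenhouse 13 to 15 days, then rated visually against controls on a 0-100 scale (0 no effect, 100 complete control).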

[12] = tested on: woolly cupgrass (Eriochloa villosa); test: Test B pre-/postemergence plant response; details: for Cupgrass, Woolly plant response rating: 8 g ai/ha
Method in brief: as §2

[13] = 8 g ai/ha, scale 0 to 100 (0 no effect, 100 complete control)
[14] = 16 g ai/ha, scale 0 to 100 (0 no effect, 100 complete control)
[15] = 31 g ai/ha, scale 0 to 100 (0 no effect, 100 complete control)
[16] = 62 g ai/ha, scale 0 to 100, 0 no effect, 100 complete control
[17] = Postemergence, 16 g ai/ha, scale 0 to 100
[18] = Postemergence, 31 g ai/ha, scale 0 to 100, 0 no effect, 100 complete control
[19] = Postemergence, 62 g ai/ha, scale 0 to 100, 0 no effect, 100 complete control
[20] = Preemergence, 16 g ai/ha, scale 0 to 100 (0 no effect, 100 complete control)
[21] = Preemergence, 31 g ai/ha, 0 to 100 scale, 0 no effect, 100 complete control
[22] = Preemergence, 62 g ai/ha, scale 0 to 100

In the case of CCc1cc(-c2ccc(Cl)cc2)nn1-c1c(OC(=O)OC(C)C)cnn(C)c1=O [Compound 41], the “Plant response rating, Oat, Wild” value (wild oat (Avena fatua); [13]) is reported as 65, the “Plant response rating, Oat, Wild” value (wild oat (Avena fatua); [14]) is reported as 75 and the “Plant response rating, Oat, Wild” value (wild oat (Avena fatua); [15]) is reported as 95. For the same compound, the “Plant response rating, Oat, Wild” value (wild oat (Avena fatua); [16]) was 95, the “Plant response rating, Barley, Spring” value [1, 13] was 0 and the “Plant response rating, Barley, Spring” value [1, 14] was 65. For the same compound, the “Plant response rating, Barley, Spring” value [1, 15] was 75, the “Plant response rating, Barley, Spring” value [1, 16] was 90 and the “Plant response rating, Canarygrass” value [2, 13] was 50. For the same compound, the “Plant response rating, Canarygrass” value [2, 14] was 80, the “Plant response rating, Canarygrass” value [2, 15] was 98 and the “Plant response rating, Canarygrass” value [2, 16] was 100. For the same compound, the “Plant response rating, Ryegrass, Italian” value [3, 13] was 100, the “Plant response rating, Ryegrass, Italian” value [3, 14] was 100 and the “Plant response rating, Ryegrass, Italian” value [3, 15] was 100. For the same compound, the “Plant response rating, Ryegrass, Italian” value [3, 16] was 100, the “Plant response rating, Wheat, Winter” value [4, 13] was 0 and the “Plant response rating, Wheat, Winter” value [4, 14] was 40. For the same compound, the “Plant response rating, Wheat, Winter” value [4, 15] was 60, the “Plant response rating, Wheat, Winter” value [4, 16] was 98 and the “Plant response rating, Bromegrass, Downy” value [5, 13] was 0. For the same compound, the “Plant response rating, Bromegrass, Downy” value [5, 14] was 50, the “Plant response rating, Bromegrass, Downy” value [5, 15] was 50 and the “Plant response rating, Bromegrass, Downy” value [5, 16] was 80. The “Plant response rating, Mustard, Wild” value [6, 13] was 0, the “Plant response rating, Mustard, Wild” value [6, 15] was 0 and the “Plant response rating, Mustard, Wild” value [6, 16] was 0. For the same compound, the “Plant response rating, Bluegrass” value ([7]; 8 g ai/ha) was 0, the “Plant response rating, Bluegrass” value ([7]; 16 g ai/ha) was 0 and the “Plant response rating, Pigweed” value [8, 13] was 0. The “Plant response rating, Pigweed” value [8, 14] was 0, the “Plant response rating, Pigweed” value [8, 15] was 0 and the “Plant response rating, Pigweed” value [8, 16] was 0. The “Plant response rating, Foxtail, Green” value [9, 13] was 98, the “Plant response rating, Foxtail, Green” value [9, 14] was 100 and the “Plant response rating, Foxtail, Green” value [9, 15] was 100. For the same compound, the “Plant response rating, Foxtail, Green” value [9, 16] was 100, the “Plant response rating, Blackgrass” value [10, 13] was 100 and the “Plant response rating, Blackgrass” value [10, 14] was 100. The “Plant response rating, Blackgrass” value [10, 15] was 100, the “Plant response rating, Blackgrass” value [10, 16] was 100 and the “Crabgrass, Large plant response rating” value ([11]; postemergence, 0-100 scale) was 70. For the same compound, the “Plant response rating, Crabgrass, Large” value [11, 17] was 85, the “Plant response rating, Crabgrass, Large” value [11, 18] was 100 and the “Plant response rating, Crabgrass, Large” value [11, 19] was 100. For the same compound, the “Plant response rating, Crabgrass, Large” value [11, 20] was 0, the “Plant response rating, Crabgrass, Large” value [11, 21] was 0 and the “Plant response rating, Crabgrass, Large” value [11, 22] was 20. For the same compound, the “Crabgrass, Large plant response rating” value ([11]; Preemergence, scale 0 to 100) was 0, the “Cupgrass, Woolly plant response rating” value ([12]; postemergence, 0-100 scale) was 95 and the “Plant response rating, Cupgrass, Woolly” value [12, 17] was 100. For the same compound, the “Plant response rating, Cupgrass, Woolly” value [12, 18] was 100, the “Plant response rating, Cupgrass, Woolly” value [12, 19] was 100 and the “Plant response rating, Cupgrass, Woolly” value [12, 20] was 0. The “Plant response rating, Cupgrass, Woolly” value [12, 21] was 0, the “Plant response rating, Cupgrass, Woolly” value [12, 22] was 75 and the “Cupgrass, Woolly plant response rating” value ([12]; Preemergence, scale 0 to 100) was 0.

— patent US20100267561A1, “HERBICIDAL PYRIDAZINONE DERIVATIVES” (priority 2007, published 2010)
